Reference: patent publication US9611278B2 (Merck Sharp & Dohme Corp., priority 2013, dated 2017)

Target: T1, sGC α1/β1 heterodimer stably expressed in CHO-K1 cells (CHO-K1/sGC) (Homo sapiens, UniProt Q02108+Q02153)
T1 construct: expressed in transfected cells
T1 sequence (Q02108 1-690): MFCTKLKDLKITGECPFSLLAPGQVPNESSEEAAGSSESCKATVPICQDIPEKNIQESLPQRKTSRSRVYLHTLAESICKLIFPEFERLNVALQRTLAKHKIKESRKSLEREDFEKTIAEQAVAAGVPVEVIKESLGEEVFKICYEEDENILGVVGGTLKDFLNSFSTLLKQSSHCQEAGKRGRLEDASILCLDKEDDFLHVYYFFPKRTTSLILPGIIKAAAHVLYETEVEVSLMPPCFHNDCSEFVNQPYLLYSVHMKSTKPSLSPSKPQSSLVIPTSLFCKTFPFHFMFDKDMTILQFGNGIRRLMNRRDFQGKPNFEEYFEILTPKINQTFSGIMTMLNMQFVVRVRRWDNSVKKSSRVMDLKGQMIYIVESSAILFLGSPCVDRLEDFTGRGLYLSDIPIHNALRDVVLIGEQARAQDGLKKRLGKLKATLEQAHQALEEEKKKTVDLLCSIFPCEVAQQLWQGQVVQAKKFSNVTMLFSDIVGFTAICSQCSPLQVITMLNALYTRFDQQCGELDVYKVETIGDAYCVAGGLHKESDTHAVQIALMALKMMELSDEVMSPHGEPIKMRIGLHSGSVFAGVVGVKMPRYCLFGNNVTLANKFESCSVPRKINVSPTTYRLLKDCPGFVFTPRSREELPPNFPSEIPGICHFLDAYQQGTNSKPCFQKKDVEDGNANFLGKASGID
T1 sequence (Q02153 1-619): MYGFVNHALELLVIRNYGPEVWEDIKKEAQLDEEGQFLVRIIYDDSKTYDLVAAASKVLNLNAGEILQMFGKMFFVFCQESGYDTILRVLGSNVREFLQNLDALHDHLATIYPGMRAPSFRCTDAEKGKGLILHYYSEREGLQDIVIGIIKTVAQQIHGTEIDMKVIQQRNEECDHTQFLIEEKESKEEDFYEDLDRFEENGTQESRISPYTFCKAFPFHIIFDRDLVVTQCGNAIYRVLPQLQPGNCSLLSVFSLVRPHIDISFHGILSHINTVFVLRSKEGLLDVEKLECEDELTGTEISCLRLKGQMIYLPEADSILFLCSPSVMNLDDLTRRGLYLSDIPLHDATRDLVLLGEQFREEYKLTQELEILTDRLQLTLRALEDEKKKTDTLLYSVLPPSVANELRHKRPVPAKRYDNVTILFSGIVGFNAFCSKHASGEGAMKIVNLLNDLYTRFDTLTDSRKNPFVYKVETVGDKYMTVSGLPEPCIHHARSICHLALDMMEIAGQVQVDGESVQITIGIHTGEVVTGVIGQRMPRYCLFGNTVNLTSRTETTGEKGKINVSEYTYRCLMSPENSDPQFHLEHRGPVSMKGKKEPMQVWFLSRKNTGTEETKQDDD
Experiment: Cell-based sGC Functional Assay (CASA Assay)
Conditions: for Emax: CHO-K1, activation as percentage of maximum cGMP production of Compound A (set to 100%), read-out: % Act.; for EC50: inflection point of cGMP generation in CHO-K1/sGC cells, 4P fit, 1 hr at 37° C., read-out: IP
Source text: sGC is a heme-containing enzyme that converts GTP to secondary messenger cGMP. Increases in cGMP levels affect several physiological processes including vasorelaxation through multiple downstream pathways. […] Heme-dependent activators (HDAs) preferentially activate sGC containing a ferrous heme group. To determine the effect of sGC activators on enzyme activity, the CASA assay was developed to monitor the generation of cGMP in a cell line that stably expresses the heterodimeric sGC protein.
A CHO-K1 cell line stably expressing the sGC α1/β1 heterodimer was generated using a standard transfection protocol. CHO-K1 cells were transfected with plasmids pIREShyghsGCα1 and pIRESneo-hsGCβ1 simultaneously using FUGENE reagent. Clones that stably express both subunits were selected with hygromycin and neomycin for ˜2 weeks. Clone #7 was chosen for the assay and was designated CHO-K1/sGC. CHO-K1/sGC cells were maintained in F-K12 medium containing 10% heat-inactivated Fetal Bovine Serum (FBS), 100 μg/mL penicillin/streptomycin, 0.5 mg/mL hygromycin and 0.25 mg/mL G418. The cells were then cryopreserved in LN2. On the day of the assay, cells thawed and resuspended in EBSS Assay Buffer (EAB, Sigma, E3024) supplemented with 5 mM MgCl2, 10 mM HEPES (4-(2-hydroxyethyl)piperazine-1-ethanesulfonic acid) and 0.05% BSA (bovine serum albumin) and cell density was then adjusted to 4×10^5/mL with EAB. IBMX (3-isobutyl-1-methylxanthin, 0.5 mM) was added to inhibit degradation of cGMP. Compounds were diluted from DMSO stock solutions and added to the assay at a final DMSO concentration of 2.5%. Cells were incubated with compounds in the presence and absence of 1 μM of Diethylenetriamine/nitric oxide adduct (DETA-NO; Sigma, 17018) for 1 hr at 37° C. At the end of the incubation period, the reaction was terminated and the cells were lysed with the detection reagents from Cisbio Kits. The level of intracellular cGMP was determined using an HTRF-based assay kit (CisBio, 62GM2PEC), which detects the displacement of a fluorescence labeled cGMP from its specific antibody. The cGMP produced by test compounds was directly compared to the maximum cGMP production (this value was set to equal 100% activation.) of the published sGC-HDA Compound A:
(Example 1 in WO 2010/065275, published Jun. 10, 2010). The test compounds' activity were then expressed as a percentage of Compound A, the standard in every experiment. This percent activation was calculated either in the presence or absence of DETA-NO which was then plotted. IP and maximum fold induction was derived using ADA analysis software for 4P fit.

## [2H]C([2H])([2H])n1ncc2c(-c3nc(N)c4c(n3)NC(=O)C4(C)c3ccc4cccnc4c3)nc(CCC(F)(F)C(F)(F)F)nc21 (stereo not shown) [Example 13, 4-Amino-5-methyl-2-(1-(methyl-d3)-6-(3,3,4,4,4-pentafluorobutyl)-1H-pyrazolo[3,4-d]pyrimidin-4-yl)-5-(quinolin-7-yl)-5,7-dihydro-6H-pyrrolo[2,3-d]pyrimidin-6-one]
  Emax: 89%
  EC50: 29 nM

## [2H]C([2H])([2H])n1ncc2c(-c3nc(N)c4c(n3)NC(=O)C4(C)c3cncc(OC)c3)nc(CCC(F)(F)C(F)(F)F)nc21 (stereo not shown) [Example 14, 4-Amino-5-(5-methoxypyridin-3-yl)-5-methyl-2-(1-(methyl-d3)-6-(3,3,4,4,4-pentafluorobutyl)-1H-pyrazolo[3,4-d]pyrimidin-4-yl)-5,7-dihydro-6H-pyrrolo[2,3-d]pyrimidin-6-one]
  Emax: 131%
  EC50: 709 nM

## Cn1cc(C2(C3CC3)C(=O)Nc3nc(-c4nc(CCC(F)(F)C(F)(F)F)nc5c4cnn5C)nc(N)c32)cn1 (stereo not shown) [Example 15, 4-Amino-5-cyclopropyl-5-(1-methyl-1H-pyrazol-4-yl)-2-(1-methyl-6-(3,3,4,4,4-pentafluorobutyl)-1H-pyrazolo[3,4-d]pyrimidin-4-yl)-5,7-dihydro-6H-pyrrolo[2,3-d]pyrimidin-6-one]
  Emax: 100%
  EC50: 475 nM

## Cn1ncc2c(-c3nc(N)c4c(n3)NC(=O)C4(c3cnoc3)C3CC3)nc(CCC(F)(F)C(F)(F)F)nc21 (stereo not shown) [Example 16, 4-Amino-5-cyclopropyl-5-(isoxazol-4-yl)-2-(1-methyl-6-(3,3,4,4,4-pentafluorobutyl)-1H-pyrazolo[3,4-d]pyrimidin-4-yl)-5,7-dihydro-6H-pyrrolo[2,3-d]pyrimidin-6-one]
  Emax: 107%
  EC50: 160 nM

## CCC1(c2ccc(OC)nc2)C(=O)Nc2nc(-c3nc(CCC(F)(F)C(F)(F)F)nc4c3cnn4C)nc(N)c21 (stereo not shown) [Example 17, 4-Amino-5-ethyl-5-(6-methoxypyridin-3-yl)-2-(1-methyl-6-(3,3,4,4,4-pentafluorobutyl)-1H-pyrazolo[3,4-d]pyrimidin-4-yl)-5,7-dihydro-6H-pyrrolo[2,3-d]pyrimidin-6-one]
  Emax: 116%
  EC50: 122 nM

## [2H]C([2H])([2H])n1ncc2c(-c3nc(N)c4c(n3)NC(=O)C4(C)c3ccnc(C(=O)OC)c3)nc(CCC(F)(F)C(F)(F)F)nc21 (stereo not shown) [Example 18, Methyl 4-(4-amino-5-methyl-2-(1-(methyl-d3)-6-(3,3,4,4,4-pentafluorobutyl)-1H-pyrazolo[3,4-d]pyrimidin-4-yl)-6-oxo-6,7-dihydro-5H-pyrrolo[2,3-d]pyrimidin-5-yl)picolinate]
  Emax: 88%
  EC50: 411 nM

## Cc1nc(C2(C)C(=O)Nc3nc(-c4nc(CCC(F)(F)C(F)(F)F)nc5c4cnn5C)nc(N)c32)no1 (stereo not shown) [Example 20, 4-Amino-5-methyl-5-(5-methyl-1,2,4-oxadiazol-3-yl)-2-(1-methyl-6-(3,3,4,4,4-pentafluorobutyl)-1H-pyrazolo[3,4-d]pyrimidin-4-yl)-5,7-dihydro-6H-pyrrolo[2,3-d]pyrimidin-6-one]
  Emax: 132%
  EC50: 103 nM

## Cn1ncc2c(-c3nc(N)c4c(n3)NC(=O)C4(C)c3ccccn3)nc(CCCC(F)(F)F)nc21 (stereo not shown) [Example 21, 4-Amino-5-methyl-2-(1-methyl-6-(4,4,4-trifluorobutyl)-1H-pyrazolo[3,4-d]pyrimidin-4-yl)-5-(pyridin-2-yl)-5,7-dihydro-6H-pyrrolo[2,3-d]pyrimidin-6-one]
  Emax: 111%
  EC50: 138 nM

## Cn1ncc2c(-c3nc(N)c4c(n3)NC(=O)C4(C)c3ccccn3)nc(CCC(F)(F)C(F)(F)F)nc21 (stereo not shown) [Example 22, 4-Amino-5-methyl-2-(1-methyl-6-(3,3,4,4,4-pentafluorobutyl)-1H-pyrazolo[3,4-d]pyrimidin-4-yl)-5-(pyridin-2-yl)-5,7-dihydro-6H-pyrrolo[2,3-d]pyrimidin-6-one]
  Emax: 103%
  EC50: 71 nM

## Cn1cc(C2(C)C(=O)Nc3nc(-c4nc(CCC(F)(F)C(F)(F)F)nc5c4cnn5C)nc(N)c32)cn1 (stereo not shown) [Example 23, 4-Amino-5-methyl-5-(1-methyl-1H-pyrazol-4-yl)-2-(1-methyl-6-(3,3,4,4,4-pentafluorobutyl)-1H-pyrazolo[3,4-d]pyrimidin-4-yl)-5,7-dihydro-6H-pyrrolo[2,3-d]pyrimidin-6-one]
  Emax: 88%
  EC50: 435 nM

## [2H]C([2H])([2H])n1ncc2c(-c3nc(N)c4c(n3)NC(=O)C4(c3cnn(C)c3)C3CC3)nc(CCC(F)(F)C(F)(F)F)nc21 (stereo not shown) [Example 24, 4-Amino-5-cyclopropyl-5-(1-methyl-1H-pyrazol-4-yl)-2-(1-(methyl-d3)-6-(3,3,4,4,4-pentafluorobutyl)-1H-pyrazolo[3,4-d]pyrimidin-4-yl)-5,7-dihydro-6H-pyrrolo[2,3-d]pyrimidin-6-one]
  Emax: 84%
  EC50: 885 nM

## CC(C)n1cc(C2(C3CC3)C(=O)Nc3nc(-c4nc(CCC(F)(F)C(F)(F)F)nc5c4cnn5C)nc(N)c32)cn1 (stereo not shown) [Example 26, 4-Amino-5-cyclopropyl-5-(1-isopropyl-1H-pyrazol-4-yl)-2-(1-methyl-6-(3,3,4,4,4-pentafluorobutyl)-1H-pyrazolo[3,4-d]pyrimidin-4-yl)-5,7-dihydro-6H-pyrrolo[2,3-d]pyrimidin-6-one]
  Emax: 72%
  EC50: 230 nM

## Cn1ncc2c(-c3nc(N)c4c(n3)NC(=O)C4(c3ncco3)C3CC3)nc(CCC(F)(F)C(F)(F)F)nc21 (stereo not shown) [Example 28, 4-Amino-5-cyclopropyl-2-(1-methyl-6-(3,3,4,4,4-pentafluorobutyl)-1H-pyrazolo[3,4-d]pyrimidin-4-yl)-5-(oxazol-2-yl)-5,7-dihydro-6H-pyrrolo[2,3-d]pyrimidin-6-one]
  Emax: 126%
  EC50: 891 nM

## Cn1ncc2c(-c3nc(N)c4c(n3)NC(=O)C4(C)c3ccc(F)cn3)nc(CCC3CC(F)(F)C3)nc21 (stereo not shown) [Example 29, 4-Amino-2-(6-(2-(3,3-difluorocyclobutyl)ethyl)-1-methyl-1H-pyrazolo[3,4-d]pyrimidin-4-yl)-5-(5-fluoropyridin-2-yl)-5-methyl-5,7-dihydro-6H-pyrrolo[2,3-d]pyrimidin-6-one]
  Emax: 121%
  EC50: 230 nM
